From patent publication US8507411B2, “Neoglycorandomization and digitoxin analogs” (priority 2004, dated 2013)
Like-named read-outs stand apart in the source and are kept apart here.

Columns and labels:
NCI-H460 = assay: High-throughput calcein AM cytotoxicity assay, NCI-H460; assay type: cell-based, human; details: NCI-H460 cells
Source text: (§1) Standard errors are depicted with error bars.

HCT-116 = assay: High-throughput calcein AM cytotoxicity assay, HCT-116; assay type: cell-based, human; details: HCT-116 cells
Source text: as §1

A549 = assay: High-throughput calcein AM cytotoxicity assay, A549; assay type: cell-based, human; details: A549 cells
Source text: as §1

Hep3B = assay: High-throughput calcein AM cytotoxicity assay, Hep3B; assay type: cell-based, human; details: Hep 3B cells
Source text: as §1

Du145 = assay: High-throughput calcein AM cytotoxicity assay, Du145; assay type: cell-based, human; details: Du145 cells
Source text: as §1

MCF7 = assay: High-throughput calcein AM cytotoxicity assay, MCF7; assay type: cell-based, human; details: MCF7 cells
Source text: as §1

SF-268 = assay: cells; assay type: cell-based, human; details: SF-268 cells
Source text: (§2) In the assay, live cells were distinguished by the presence of a ubiquitous intracellular enzymatic activity which converts the non-fluorescent cell-permeable molecule calcein AM to the intensely fluorescent molecule calcein, which is retained within live cells. The IC50 value for each library member represents at least six replicates of dose-response experiments conducted over five concentrations using two-fold dilutions. […] Standard errors are depicted with error bars. Numerical values and corresponding error values can be found in Table 4. Du145: […]; MCF7: human breast carcinoma; HCT-116: human colon carcinoma, Hep3B: human liver carcinoma; SF-268: human CNS glioblastoma; SK-OV-3: human ovary adenocarcinoma; NCI-H460: human lung carcinoma; A549: human lung adenocarcinoma; NCI/ADR-RES: human breast carcinoma; NmuMG: mouse mammary normal epithelial.
(§3) Cell Culture: All cell lines except NmuMG were maintained in RPMI 1640 medium from InVitrogen (Cat No. 11875-085) supplemented with 10% w/v fetal bovine serum (FBS) from ICN (Cat No. 2916154) and penicillin-streptomycin (PS) (100 U/mL and 100 μg/mL) from InVitrogen (Cat No. 15140-122). NmuMG cells were maintained in DMEM medium from InVitrogen (Cat No. 11965-084) supplemented with 10% w/v fetal bovine serum (FBS) from ICN (Cat No. 2916154), 10 μg/ml insulin (InVitrogen Cat No 12585-014), and penicillin-streptomycin (PS) (100 U/mL and 100 μg/mL) from InVitrogen (Cat No. 15140-122). Cells were harvested by trypsinization using 0.25% w/v trypsin and 0.1% w/v EDTA from InVitrogen (Cat No. 15-050-057) and then counted in a hemocytometer in duplicate with better than 10% agreement in field counts. Cells were plated at a cell density of 10,000-15,000 cells/well of each Corning Costar 96-well black tissue culture treated microtiter plate (Fisher Cat No. 07-200-627). Cells were grown for 1 h at 37° C., with 5% CO2 in a humidified incubator to allow cell attachment to occur before compound addition.
(§4) Library Member Handling and Preparation for Cytotoxicity Assays: Library members were stored at −20° C. under dessicating conditions before the assay. Library member stocks (100×) were prepared in Corning Costar polypropylene 96-well V-bottom polypropylene microtiter plates (Fisher Cat No. 07-200-695). Five serial 1:2 dilutions were made with anhydrous DMSO at 100× the final concentration used in the assay.
(§5) Library Member Addition: The library member-containing plates were diluted 1:10 with complete cell culture media. The 10× stocks (10 μL) were added to the attached cells using a Biomek FX liquid handler (Beckman-Coulter). Library member stocks (10 μL) were added to 90 μL of cells in each plate to insure full mixing of stocks with culture media using a Beckman FX liquid handler with 96-well head.
(§6) Determination of Cytotoxicity: Cells were incubated with the library members for 72 h before fluorescence reading. Test plates were removed from the incubator and washed 1× in sterile PBS to remove serum containing calcium esterases. Calcein AM reagent (30 μL, […]) was added and the cells were incubated for 30 min at 37° C. Plates were read for emission using a fluorescein filter (excitation 485 nm, emission 535 nm).
(§7) IC50 Calculation: For each library member, at least six dose response experiments were conducted. […] To calculate IC50, percent inhibitions were plotted as a function of log [concentration] and then fit to a four-parameter logistic model that allowed for a variable Hill slope using XLfit 4.1.
(§8) Cytotoxicity Assays. All cell lines except NmuMG were maintained in RPMI 1640 medium supplemented with 10% w/v fetal bovine serum (FBS) and penicillin-streptomycin (PS) (100 U/mL and 100 μg/mL).

NCI/ADR-RES = assay: cells; assay type: cell-based, human; details: NCI/ADR-RES cells
Source text: as §2, §3, §4, §5, §6, §7, §8

SK-OV-3 = assay: cells; assay type: cell-based, human; details: SK-OV-3 cells
Source text: as §2, §3, §4, §5, §6, §7, §8

NmuMG = assay: cells; assay type: cell-based, mouse
Source text: as §2, §3, §4, §5, §6, §7, §8

[1] = NmuMG cells (mouse mammary normal epithelial control line), read-out: IC50
[2] = NmuMG mouse mammary normal epithelial control line, read-out: IC50, NmuMG

| Compound | IC50 (NCI-H460; read-out: IC50) | IC50 (HCT-116; read-out: IC50) | IC50 (A549; read-out: IC50) | IC50 (Hep3B; read-out: IC50) | IC50 (Du145; read-out: IC50) | IC50 (MCF7; read-out: IC50) | IC50 (SF-268; read-out: IC50) | IC50 (NCI/ADR-RES; read-out: IC50) | IC50 (SK-OV-3; read-out: IC50) | IC50 (NmuMG; [1]) | IC50 (NCI-H460; read-out: IC50, NCI-H460) | IC50 (HCT-116; read-out: IC50, HCT-116) | IC50 (A549; read-out: IC50, A549) | IC50 (Hep3B; read-out: IC50, Hep 3B) | IC50 (Du145; read-out: IC50, Du145) | IC50 (MCF7; read-out: IC50, MCF7) | IC50 (SF-268; read-out: IC50, SF-268) | IC50 (NCI/ADR-RES; read-out: IC50, NCI/ADR-RES) | IC50 (SK-OV-3; read-out: IC50, SK-OV-3) | IC50 (NmuMG; [2]) |
| --- | --- | --- | --- | --- | --- | --- | --- | --- | --- | --- | --- | --- | --- | --- | --- | --- | --- | --- | --- | --- |
| 6-deoxy-6-azido-D-mannoside [41α] | > 25 µM | > 25 µM | > 25 µM | > 25 µM | > 25 µM | > 25 µM | > 25 µM | > 25 µM | > 25 µM | > 25 µM |  |  |  |  |  |  |  |  |  |  |
| 6-keto-D-galactoside [31α] |  |  |  |  |  |  |  |  |  | > 25 µM | > 25 µM | > 25 µM | > 25 µM | > 25 µM | > 25 µM | > 25 µM | > 25 µM | > 25 µM | > 25 µM |  |
| 6-keto-D-galactoside [31β] |  |  |  |  |  |  |  |  |  |  | 2.4 µM | 3.1 µM | 2.3 µM | 3.1 µM | 1.5 µM | 9 µM | 8 µM | 1 µM | 2.9 µM | > 25 µM |
| CON(C1CCC2(C)C(CCC3C2CCC2(C)C(C4=CC(=O)OC4)CCC32O)C1)C1OCC(O)C(O)C1O [5α, L-riboside] |  |  |  |  |  |  |  |  |  |  | > 25 µM | > 25 µM | > 25 µM | > 25 µM | > 25 µM | > 25 µM | > 25 µM | > 25 µM | > 25 µM | > 25 µM |
| CON(C1CCC2(C)C(CCC3C2CCC2(C)C(C4=CC(=O)OC4)CCC32O)C1)C1OCC(O)C(O)C1O [6α, D-riboside] |  |  |  |  |  |  |  |  |  |  | > 25 µM | > 25 µM | > 25 µM | > 25 µM | > 25 µM | > 25 µM | > 25 µM | > 25 µM | > 25 µM | > 25 µM |
| CON([C@H]1CC[C@@]2(C)[C@H](CC[C@@H]3[C@@H]2CC[C@]2(C)[C@@H](C4=CC(=O)OC4)CC[C@]32O)C1)[C@@H]1OC[C@@H](O)[C@@H](O)[C@H]1O [6β, D-riboside] |  |  |  |  |  |  |  |  |  |  | 0.9 µM | 1.3 µM | 1.02 µM | 0.9 µM | 0.72 µM | 3 µM | 1.8 µM | 0.66 µM | 1.7 µM | 0.48 µM |
| CON(C1CCC2(C)C(CCC3C2CCC2(C)C(C4=CC(=O)OC4)CCC32O)C1)C1OC(C)C(O)C(O)C1O [7α, L-fucoside] |  |  |  |  |  |  |  |  |  |  | > 25 µM | > 25 µM | > 25 µM | > 25 µM | > 25 µM | > 25 µM | > 25 µM | > 25 µM | > 25 µM | > 25 µM |
| CON([C@H]1CC[C@@]2(C)[C@H](CC[C@@H]3[C@@H]2CC[C@]2(C)[C@@H](C4=CC(=O)OC4)CC[C@]32O)C1)[C@H]1O[C@@H](C)[C@@H](O)[C@@H](O)[C@@H]1O [7β, L-fucoside] |  |  |  |  |  |  |  |  |  |  | 0.6 µM | 1.2 µM | 0.3 µM | 0.35 µM | 0.7 µM | 1.3 µM | 0.9 µM | 0.25 µM | 0.5 µM | > 25 µM |
| CON(C1CCC2(C)C(CCC3C2CCC2(C)C(C4=CC(=O)OC4)CCC32O)C1)C1OC(C)C(O)C(O)C1O [8α, D-fucoside] |  |  |  |  |  |  |  |  |  |  | > 25 µM | > 25 µM | > 25 µM | > 25 µM | > 25 µM | > 25 µM | > 25 µM | > 25 µM | > 25 µM | > 25 µM |
| CON([C@H]1CC[C@@]2(C)[C@H](CC[C@@H]3[C@@H]2CC[C@]2(C)[C@@H](C4=CC(=O)OC4)CC[C@]32O)C1)[C@@H]1O[C@H](C)[C@H](O)[C@H](O)[C@H]1O [8β, D-fucoside] |  |  |  |  |  |  |  |  |  |  | 1.3 µM | 7 µM | 1.8 µM | 4.9 µM | 3.9 µM | 11 µM | 10 µM | 1.5 µM | 5 µM | > 25 µM |
| CON(C1CCC2(C)C(CCC3C2CCC2(C)C(C4=CC(=O)OC4)CCC32O)C1)C1CC(O)C(O)C(CO)O1 [9α, 2-deoxy-D-galactoside] |  |  |  |  |  |  |  |  |  |  | > 25 µM | > 25 µM | > 25 µM | > 25 µM | > 25 µM | > 25 µM | > 25 µM | > 25 µM | > 25 µM | > 25 µM |
| CON([C@H]1CC[C@@]2(C)[C@H](CC[C@@H]3[C@@H]2CC[C@]2(C)[C@@H](C4=CC(=O)OC4)CC[C@]32O)C1)[C@H]1C[C@@H](O)[C@@H](O)[C@@H](CO)O1 [9β, 2-deoxy-D-galactoside] |  |  |  |  |  |  |  |  |  |  | 2 µM | 10 µM | 1.3 µM | 3.6 µM | 7 µM | 5.1 µM | 8 µM | 0.9 µM | 4 µM | > 25 µM |
| CON(C1CCC2(C)C(CCC3C2CCC2(C)C(C4=CC(=O)OC4)CCC32O)C1)C1OCC(O)C(O)C1O [23α, L-xyloside] |  |  |  |  |  |  |  |  |  |  | > 25 µM | > 25 µM | > 25 µM | > 25 µM | > 25 µM | > 25 µM |  |  |  |  |
| CON(C1CCC2(C)C(CCC3C2CCC2(C)C(C4=CC(=O)OC4)CCC32O)C1)C1OCC(O)C(O)C1O [24α, D-xyloside] |  |  |  |  |  |  |  |  |  |  | > 25 µM | > 25 µM | > 25 µM | > 25 µM | > 25 µM | > 25 µM |  |  |  |  |
| CON(C1CCC2(C)C(CCC3C2CCC2(C)C(C4=CC(=O)OC4)CCC32O)C1)C1OC(CO)C(OC2OC(CO)C(O)C(O)C2O)C(O)C1O (stereo not drawn) [36β, lactoside] |  |  |  |  |  |  |  |  |  |  | > 25 µM | > 25 µM | 24 µM | 26 µM |  | > 25 µM | > 25 µM | 13 µM | 19 µM | > 25 µM |
| CON(C1CCC2(C)C(CCC3C2CCC2(C)C(C4=CC(=O)OC4)CCC32O)C1)C1OC(CO)C(OC2OC(CO)C(O)C(O)C2O)C(O)C1O (stereo not drawn) [37α, maltoside] |  |  | > 25 µM | > 25 µM | > 25 µM |  |  | > 25 µM | > 25 µM | > 25 µM |  |  |  |  |  |  |  |  |  |  |
| CON(C1CCC2(C)C(CCC3C2CCC2(C)C(C4=CC(=O)OC4)CCC32O)C1)C1OC(CO)C(OC2OC(CO)C(O)C(O)C2O)C(O)C1O (stereo not drawn) [37β, maltoside] |  |  |  |  |  |  |  |  |  |  | 6.1 µM | 24 µM | 4.4 µM | 7 µM | 4.4 µM | > 25 µM | 6 µM | 4.4 µM | 5 µM |  |
